For one molecule, IC50 results are on record in article doi:10.1101/2025.03.30.646166v1 (biorxiv, 2025).

The target of this assay is T1, human USP18 residues 52-372 (recombinant) (Homo sapiens, UniProt Q9UMW8).
T1 sequence (Q9UMW8 52-372): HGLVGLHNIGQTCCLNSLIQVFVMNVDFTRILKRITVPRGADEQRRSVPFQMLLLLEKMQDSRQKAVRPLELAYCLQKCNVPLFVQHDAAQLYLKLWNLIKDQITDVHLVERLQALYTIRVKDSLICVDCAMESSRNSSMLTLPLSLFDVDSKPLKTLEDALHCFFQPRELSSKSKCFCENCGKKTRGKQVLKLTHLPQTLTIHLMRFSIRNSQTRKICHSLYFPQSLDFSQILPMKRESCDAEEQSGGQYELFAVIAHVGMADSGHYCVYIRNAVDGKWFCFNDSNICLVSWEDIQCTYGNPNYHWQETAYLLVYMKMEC
As to the kind of experiment: fluorogenic ISG15ct-rhodamine cleavage, dose-response. The class given is biochemical.

One may read the IC50 as the concentration at which inhibition is half-maximal. As for `Cc1ccc2[nH]c3c(c2c1)CN(C(=O)c1cc(-c2ccccc2)[nH]n1)CC3` [compound 8655, ZHAWOC8655], the half-inhibitory concentration (IC50) is 14.1 ± 1.6 µM.
